# From US20150064221A1, “COMPOUNDS HAVING IMMUNOMUDULATOR ACTIVITY” (priority 2012, published 2015)
# Assays:
# [1] = Stability in human liver S9 fractions; type: in vitro ADME; conditions: with phase 1 and 2 cofactors, read-out: t1/2 in human liver S9 fractions
# Protocol: The highest plasma concentrations generally occurred in 1-2 hours. […] The highest level of inhibition was ˜35% for 2C19 at a 30 μM concentration. […] Lastly, VGX-1027 is stable in human liver S9 fractions (with phase 1 and 2 cofactors) with t1/2>90 minutes, which indicates a low likelihood of metabolism in the liver.
# [2] = Rising MTD study in mice; conditions: mouse, in vivo, 1000 mg/kg/day, read-out: Approximate Cmax
# Protocol: (Approximate Cmax@ [1000 mg/kg/day] was […]). Based on these studies, 10 mg was determined to be a safe starting dose in the human study.
# [3] = system: undifferentiated CD4 T cells; assay: Proliferation of undifferentiated CD4 T cells; type: cell-based
# Protocol: (A) Cell viability was measured via the MTT assay after 48 hours of treatment. (B) TNF-α levels were measured 48 hours post LPS (5 μg/ml) stimulation. (C) CD4 T cells were stimulated with either ConA (10 μg/ml) or anti-CD3/CD28 beads (10 μg/ml), and proliferation was measured via 3H-thymidine incorporation.
# [4] = system: splenic DCs; assay: LPS-induced maturation of dendritic cells in vivo; parameters: species or system mice; conditions: 0.5 mg/mouse 1 hour prior to LPS
# Protocol: Mice were given VGX-1027 (0.5 mg/mouse) or a control, and then injected with LPS (25 μg/mouse) 1 hour later. At 3 hours post LPS administration, the mice were sacrificed, and (A) % of splenic DCs with CD86 and (B) MFI of CD86 from the CD86+ cells were measured.
# To determine if this effect could be translated in vivo, mice were injected with LPS and the % of DCs that express CD86, which is a maturation marker, and the MR of CD86 on the positive cells were measured. The activation of DCs via CD86 expression, and not total cytokine levels, was measured in order to ascertain the direct affects of VGX-1027 on DCs. In vivo cytokine measurement could be confounded by other cytokine producing cells, such as macrophages. The mice were injected with LPS or LPS+VGX-1027 (VGX-1027 was given 1 hour prior to LPS administration) 3 hours post injection. The spleen from these mice were extracted and analyzed for DCs with CD86 expression. […] Moreover, the VGX1027-induced decrease in the percentage of cells that expressed CD86 and was associated with a decrease in the expression of CD86 per cell (FIG. 7b). Therefore, VGX-1027 inhibits LPS-induced production of Th17-promoting inflammatory cytokines by DCs in vitro and reduces LPS-induced maturation of DCs in vivo.
# [5] = system: Purified CD4 T cells; assay: Th17 T cell development from purified CD4 T cells; type: cell-based; conditions: 10 mM
# Protocol: Purified CD4 T cells (CD3^+ CD4^+ CD45RA^+ CD25^− HLA−DR^−) were incubated with 10 μg/ml of IL-2, 10 ng/mL of IL-1β, 10 ng/ml of IL-23, 1 ug/ml of anti-IL-4, 1 ug/mL of anti-IFNγ and anti-CD3/CD28 activation beads at a ratio of 1 bead per cell plus TGF-β (1 ng/mL). On day 6, the cells were incubated in the presence of 50 ng/ml of PMA and 500 ng/ml of ionomycin for 5 hours. The cells were analyzed for intracellular staining of IL-17A and IFNγ. (A) FACS analysis of CD4+ and IL-17+ cells with the percentage shown in the upper right quadrant. (B) Mean Fluorescent Intensity (MFI) of IL-17+ T cells. (C) Concentration of IL-17 in the media. VGX-1027 concentration was 10 mM.
# Although inhibition of Th17-promoting cytokine production from DCs is likely to contribute to the decrease of Th17 T cell development, the potential limitation with this mechanism is that other cells may be compensating for the production of Th17-promoting cytokines. Therefore, the direct effect of VGX-1027 was tested on the differentiation of naïve CD4 T cells into Th17 T cells. In vitro generation of Th17 T cells requires TGF-β, IL-1β, IL-6, and either IL-21 or IL-23. Th17 T cells was assessed with purified CD4 T cells (CD3+ CD4+ CD45RA+ CD25− HLA−DR−) with or without VGX-1027.
# [6] = system: endotoxin-induced uveitis; assay: Endotoxin-induced uveitis (EIU); type: in vivo, Lewis rats
# Protocol: Rats were treated with VGX-1027 at 30 minutes (A) and 6 and 12 hours (B) after LPS injection […]). […] were evaluated 16 hours post LPS injection. Dexamethasone (1 mg/kg) was administered as a positive control. *p<0.0001 vs. vehicle.
# Chronic intraocular inflammation denotes a heterogeneous group of diseases that is a leading cause of acquired blindness in adults. Uveitis refers to inflammation of the uvea, which is the vascular tunic or middle coat of the eye, and is responsible for approximately 3% of blindness in the United States. Unlike other autoimmune conditions with known etiologies, uveitis manifests in a number of inflammatory syndromes including Crohn's disease, Behcet's disease, sarcoidosis, and others (Yeh et al., Semin. Immunopathol., (30) 145-164 (2008)). To study the possible utility of VGX-1027 in treating ocular inflammatory conditions, we injected LPS into footpads of Lewis Rats to induce uveitis. After 16 hours post LPS injection, the rats were sacrificed, and their eyes and aqueous humor were collected to study serological, immunological, and histological signs of EIU. The development of EIU was graded on the following scale: (0) no inflammatory reaction; (1) discrete dilatation of the iris and conjunctival vessels; (2) moderate dilatation of the iris and conjunctival vessels; (3) intense iridal hyperaemia with flare in anterior chamber; and (4) same clinical signs as grade 3 plus the presence of fibrinous exudate in the pupillary area with intense flare in the anterior chamber.
# [7] = system: Normal human PBMCs; assay: Ex vivo immune effects in PBMCs with plasma of dosed subjects; type: cell-based; conditions: LPS 5 μg/ml + plasma of 5th day after dosing
# Protocol: Normal human PBMCs were isolated and cultured in the presence of LPS (5 μg/ml) with or without VGX-1027 treated plasma. Plasma samples were obtained by blood collection before and on the 5th day after VGX-1027 dosing in steady state. Cell free supernateants were analyzed for production of TNF-α and IL-1β 24 hours post treatment. Cytokine levels (pg/ml) were assayed by ELISA. Representative results were correlated with pro-inflammatory cytokine inhibition.
# [8] = system: enterobacterial antigen-reactive CD4+CD25− T cells; conditions: in vitro; Mangano et al. 2008; cited from earlier work
smiles,measurement,setting,value
"O=C(O)CC1CC(c2ccccc2)=NO1 (stereo not drawn) [VGX-1027, 3-phenyl-4,5-dihydro-5-isoxazoleacetic acid]",half-life,[1],> 1.5 h
same,Cmax,[2],~400 µg/mL
same,proliferation,[3]; CD3/CD28 stimulation,affected neither
same,INF-γ production,[3]; ConA stimulation,affected neither
same,proliferation,[3]; ConA stimulation,affected neither
same,expression of CD86 per cell (MFI),[4],decrease
same,overall percentage of DCs in the spleen,[4],without affecting
same,% of DCs that expressed CD86,[4]; 3 hours post LPS,reduced this percentage
same,IL-17 expressed in a Th17 T cell (MFI),[5],decrease
same,IL-17 in the culture media,[5],decrease
same,inflammatory cytokines in the aqueous humor,[6]; LPS-induced increase,decreased
same,protein in the aqueous humor,[6]; LPS-induced increase,decreased
same,clinical inflammation score,[6]; administered 30 minutes after LPS,significantly lower
same,clinical inflammation grade,[6]; administered 12 hours post LPS,not observed
same,infiltration of cells into the iris ciliary body,"[6]; rat, in vivo",decreased
same,IL-1β levels,[7],repressed to levels comparable to the negative controls
same,TNF-α levels,[7],repressed to levels comparable to the negative controls
same,proliferation of enterobacterial antigen-reactive CD4+CD25− T cells,[8],inhibits
